According to patent US20210253575A1, “PYRROLIDINE AMINE COMPOUNDS FOR THE TREATMENT OF AUTOIMMUNE DISEASE” (Hoffmann-La Roche Inc., priority 2018, published 2021):

Target: T1, human TLR9 (Homo sapiens, UniProt Q9NR96)
T1 sequence (Q9NR96 26-1032): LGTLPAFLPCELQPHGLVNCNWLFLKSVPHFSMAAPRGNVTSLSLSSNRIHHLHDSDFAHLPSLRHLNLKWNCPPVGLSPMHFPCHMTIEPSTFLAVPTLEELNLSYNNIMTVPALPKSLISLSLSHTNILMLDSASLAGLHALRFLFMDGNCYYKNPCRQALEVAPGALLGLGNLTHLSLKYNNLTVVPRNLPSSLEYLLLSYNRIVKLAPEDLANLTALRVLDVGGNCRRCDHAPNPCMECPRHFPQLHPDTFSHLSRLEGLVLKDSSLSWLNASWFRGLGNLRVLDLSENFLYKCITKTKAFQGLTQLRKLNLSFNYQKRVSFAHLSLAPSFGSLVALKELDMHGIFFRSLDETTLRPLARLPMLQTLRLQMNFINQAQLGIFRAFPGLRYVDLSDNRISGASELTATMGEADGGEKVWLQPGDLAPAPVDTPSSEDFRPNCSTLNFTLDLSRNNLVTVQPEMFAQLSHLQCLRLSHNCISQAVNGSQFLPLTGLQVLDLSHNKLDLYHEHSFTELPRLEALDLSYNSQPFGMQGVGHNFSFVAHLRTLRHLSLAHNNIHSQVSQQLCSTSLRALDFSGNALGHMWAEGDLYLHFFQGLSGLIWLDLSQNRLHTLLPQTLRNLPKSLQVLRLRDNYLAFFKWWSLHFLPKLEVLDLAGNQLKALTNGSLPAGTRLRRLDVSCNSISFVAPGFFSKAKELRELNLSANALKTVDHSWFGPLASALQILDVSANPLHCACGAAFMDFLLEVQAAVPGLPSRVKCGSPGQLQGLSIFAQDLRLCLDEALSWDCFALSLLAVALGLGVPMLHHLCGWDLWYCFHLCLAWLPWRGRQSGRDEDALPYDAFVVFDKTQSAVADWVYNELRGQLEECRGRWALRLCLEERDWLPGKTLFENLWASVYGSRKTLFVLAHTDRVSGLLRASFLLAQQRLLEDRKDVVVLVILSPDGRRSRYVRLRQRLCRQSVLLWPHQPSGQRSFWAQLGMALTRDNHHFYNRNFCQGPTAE
Assay: HEK293-Blue-hTLR-9 cells assay (SEAP reporter, ODN2006 stimulation)
Assay type: cell-based
Conditions: HEK293-Blue-hTLR9 cells, ODN2006 ligand, 20 hrs incubation
How it was run: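 HEK293-Blue-hTLR9 cells with NF-κB/AP-1-driven SEAP reporter, stimulated with ODN2006 in presence of serially diluted compounds (1% DMSO) for 20 h at 37 °C. Supernatant SEAP measured with QUANTI-Blue after 2 h at 37 °C, absorbance 620–655 nm.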

Compound | IC50
N#Cc1ccc(N2CC(CN3CCNCC3)C3(CC3)C2)c2nccnc12 (centres unmarked) [Example 3, 8-[7-(piperazin-1-ylmethyl)-5-azaspiro[2.4]heptan-5-yl]quinoxaline-5-carbonitrile] | 1870 nM
N#Cc1ccc(N2CC(CN3CC4CCC(C3)C4N)C3(CC3)C2)c2nccnc12 (centres unmarked) [Example 4, 8-[7-[(8-Amino-3-azabicyclo[3.2.1]octan-3-yl)methyl]-5-azaspiro[2.4]heptan-5-yl]quinoxaline-5-carbonitrile] | 244 nM
CN(C)[C@@H]1CCN(C[C@H]2CN(c3ccc(C#N)c4nccnc34)C[C@@H]2C(F)(F)F)C1 [Example 83, 8-[(3S,4R)-3-[[(3R)-3-(dimethylamino)pyrrolidin-1-yl]methyl]-4-(trifluoromethyl)pyrrolidin-1-yl]quinoxaline-5-carbonitrile] | 2020 nM
CN1CCC2(CCN(C[C@H]3CN(c4ccc(C#N)c5nccnc45)C[C@@H]3C(F)(F)F)C2)C1 (stereo partly drawn) [Example 84, 8-[(3S,4R)-3-[(7-methyl-2,7-diazaspiro[4.4]nonan-2-yl)methyl]-4-(trifluoromethyl)pyrrolidin-1-yl]quinoxaline-5-carbonitrile] | 409 nM
CC1(CN)CCN(C[C@H]2CN(c3ccc(C#N)c4nccnc34)C[C@@H]2C(F)(F)F)C1 (stereo partly drawn) [Example 85, 8-[(3S,4R)-3-[[3-(aminomethyl)-3-methyl-pyrrolidin-1-yl]methyl]-4-(trifluoromethyl)pyrrolidin-1-yl]quinoxaline-5-carbonitrile] | 314 nM
